# Laboratory results reported in PubChem BioAssay AID2021 (NMMLSC, 2009).
# Activity calls are given as the source filed them. How the calls were made is not given here.
# Target: Cell division control protein 42 homolog (Homo sapiens) (UniProt P60953)
# Experiment: Cdc42 activated mutant GTP-binding inhibitors, SAR follow-up, biochemical, bead-based multiplex flow cytometry, additional SAR set (AID 2021)
# Conditions: fluorescent GTP binding; for Ki: measured here: Ki derived from EC50
# Sequence of Cell division control protein 42 homolog (Homo sapiens) (P60953 whole entry, looked up): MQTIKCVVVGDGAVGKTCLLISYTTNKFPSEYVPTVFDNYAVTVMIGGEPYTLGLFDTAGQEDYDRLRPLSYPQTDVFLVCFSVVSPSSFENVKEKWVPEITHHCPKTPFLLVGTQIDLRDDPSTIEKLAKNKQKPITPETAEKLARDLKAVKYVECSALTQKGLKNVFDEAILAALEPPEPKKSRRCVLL
Compound,EC50,Ki
O=C1N=c2ccccc2=C1c1[nH]c(=O)[nH]c1O,inactive,0.81 µM
O=C(C#Cc1ccccc1)c1ccc([N+](=O)[O-])cc1,> 30 µM (inactive),
O=[N+]([O-])c1ccc(C#Cc2ccccc2)cc1,13.7 µM,2.12 µM
O=C1C(c2c(O)[nH]c3ccc(Br)cc23)=Nc2ccccc21,> 30 µM (inactive),
COc1ccc(S(=O)(=O)n2c(N)c(C#N)c(-c3ccccc3)c2C(=O)c2ccc(Br)cc2)cc1,> 30 µM (inactive),
O=C(C#Cc1ccccc1)c1ccc(Cl)cc1,> 30 µM (inactive),
CC(=O)Oc1ccccc1C(=O)O,> 30 µM (inactive),
O=C1C(c2c(O)[nH]c3c(Br)cccc23)=Nc2ccccc21,> 30 µM (inactive),
O=C(C#Cc1ccccc1)c1cccnc1,> 30 µM (inactive),
N#Cc1ccc(C(=O)C#Cc2ccccc2)cc1,> 30 µM (inactive),
O=C(C#Cc1ccccc1)c1ccccc1,> 30 µM (inactive),
COc1ccc2cc(CC(=O)O)ccc2c1,> 30 µM (inactive),
O=C1Nc2cccc(Br)c2/C1=C1/Cc2ccccc2C1=O,> 30 µM (inactive),
COc1ccc(C(=O)C#Cc2ccccc2)cc1,> 30 µM (inactive),
CC(C(=O)O)c1cccc(C(=O)c2ccccc2)c1 (stereo not given),> 30 µM (inactive),
O=C1C(c2c(O)[nH]c3ccccc23)=Nc2ccccc21,> 30 µM (inactive),
CC(C)Cc1ccc([C@H](C)C(=O)O)cc1,inactive,0.99 µM
CC1=C(CC(=O)O)c2cc(F)ccc2/C1=C/c1ccc(S(C)=O)cc1 (stereo not given),> 30 µM (inactive),
O=Nc1c(-c2c(O)[nH]c3c(Cl)cccc23)[nH]c2ccccc12,> 30 µM (inactive),
O=Nc1c(-c2c(O)[nH]c3ccc(Br)cc23)[nH]c2ccccc12,> 30 µM (inactive),

Compound,EC50,Ki
O=C1C(c2c(O)[nH]c3c(F)cccc23)=Nc2ccccc21,> 30 µM (inactive),
O=Nc1c(-c2c(O)[nH]c3ccccc23)[nH]c2ccccc12,> 30 µM (inactive),
COc1ccc(-c2c(C#N)c(N)n(S(C)(=O)=O)c2C(=O)c2ccccc2)cc1Br,inactive,2.87 µM
COC(=O)c1ccc(C(=O)C#Cc2ccccc2)cc1,> 30 µM (inactive),
N#Cc1c(-c2ccc(Cl)cc2)c(C(=O)c2ccccc2)n(S(=O)(=O)c2ccc([N+](=O)[O-])cc2)c1N,inactive,0.93 µM
COc1ccc(S(=O)(=O)n2c(N)c(C#N)c(-c3cc(Br)c(OC)c(OC)c3)c2C(=O)c2ccccc2)cc1,> 30 µM (inactive),
CC(C(=O)O)c1cccc(Oc2ccccc2)c1 (stereo not given),> 30 µM (inactive),
O=C1Nc2c(Br)cccc2/C1=C1/Cc2ccccc2C1=O,> 30 µM (inactive),
O=C1C(c2c(O)[nH]c3c(Cl)cccc23)=Nc2ccccc21,> 30 µM (inactive),
CSc1ccc(/C=C2/C(C)=C(CC(=O)O)c3cc(F)ccc32)cc1,inactive,7.52 µM
O=Nc1c(-c2c(O)[nH]c3c(F)cccc23)[nH]c2ccccc12,> 30 µM (inactive),
O=Nc1c(-c2c(O)[nH]c3c(Br)cccc23)[nH]c2ccccc12,inactive,8.52 µM
O=C(C#Cc1ccccc1)c1ccc(OC(F)(F)F)cc1,> 30 µM (inactive),
CCCCS(=O)(=O)n1c(N)c(C#N)c(-c2cc(OC)c(OC)c(OC)c2)c1C(=O)c1ccccc1,inactive,2.88 µM
O=C1N=c2ccccc2=C1c1[nH]c(=S)[nH]c1O,> 30 µM (inactive),
COc1cc(-c2c(C#N)c(N)n(S(=O)(=O)c3c(C(C)C)cc(C(C)C)cc3C(C)C)c2C(=O)c2ccccc2)cc(OC)c1OC,> 30 µM (inactive),
COc1ccc(S(=O)(=O)n2c(N)c(C#N)c(-c3cncc(Br)c3)c2C(=O)c2ccccc2)cc1,9.98 µM,1.54 µM
O=C1Nc2ccccc2/C1=C1/Cc2ccccc2C1=O,> 30 µM (inactive),
O=C(C#Cc1ccccc1)c1ccccc1[N+](=O)[O-],> 30 µM (inactive),
O=C(C#Cc1ccccc1)c1ccc(F)cc1,inactive,9.15 µM
